# Patent US7531555B2, “Compositions and methods for selective inhibition of nicotine acetylcholine receptors” (University of Florida Research Foundation, Inc., priority 2003, dated 2009)
# Read-outs that look alike come from different tables or passages of the source.
# Tests used:
# mice = assay: Hot-plate test, blockade of nicotine-induced antinociception; type: in vivo
# Protocol: (§1) Animals. Male ICR mice (20-25 g) obtained from Harlan Laboratories (Indianapolis, Ind.) were used throughout the study. Animals were housed in groups of six and had free access to food and water. Adult, male Long-Evans rats (350-460 g), obtained from Harlan (Dublin, Va.), were individually housed in a temperature-controlled (20-22° C.) environment with a 12-hour light-dark cycle (lights on at 7 a.m.). Rats were maintained within the indicated weight range by restricted post-session feeding and had ad libitum water in their home cages. Rats were drug-naive at the beginning of the study. Animals were housed in an AALAC approved facility and the study was approved by the Institutional Animal Care and Use Committee of Virginia Commonwealth University.
# 2. Hot-plate Test. Mice were placed into a 10 cm wide glass cylinder on a hot plate (Thermojust Apparatus) maintained at 55.0° C. Two control latencies at least 10 minutes apart were determined for each mouse. […] Antinociceptive response was calculated as percent maximum possible effect (% MPE), where % MPE=[(test-control)/(40-control)×100]. The reaction time was scored when the animal jumped or licked its paws. […]
# The doses of nicotine used in the different tests represent approximately an ED84 (Effective dose 84%) which were determined from previous works (Damaj et al. Psychopharmacology (Berl), 1995, 117:67-73). […]
# rats = assay: Nicotine drug discrimination in rats; type: in vivo
# Protocol: as §1
# Statistical analysis. Statistical analysis of all analgesic and in vivo studies was performed using either t-test or analysis of variance (ANOVA) with Tukey's test post hoc test when appropriate. All differences were considered significant at p<0.05. AD50 values with 95% CL for behavioral data were calculated by unweighted least-squares linear regression as described by Tallarida and Murray (Tallarida and Murray Manual of Pharmacological Calculations with Computer Programs. 1987, Springer-Verlag, New York).
# Rat α6β4β3 = target: T1, Rat α6β4β3 (Rattus norvegicus, UniProt P12391+P12392+P43143); assay: Voltage clamp of Xenopus oocytes expressing α6β4β3 nAChR; type: cell-based
# T1 construct: oocytes expressing the complete wild-type α6 subunits were tested; expressed in transfected cells; host or cells: Xenopus laevis oocytes injected with subunit cRNAs; clones from Dr. Jim Boulter (UCLA)
# Protocol: Mature (>9 cm) female Xenopus laevis African frogs (NASCO, Ft. Atkinson, Wis.) were used as a source of oocytes. Prior to surgery, frogs were anesthetized by placing the animal in a 1.5 g/l solution of MS222 (3-aminobenzoic acid ethyl ester) for 30 minutes. Oocytes were removed from an incision made in the abdomen.
# In order to remove the follicular cell layer, harvested oocytes were treated with 1.25 mg/ml collagenase from Worthington Biochemical Corporation (Freehold, N.J.) for 2 hours at room temperature in calcium-free Barth's solution (88 mM NaCl, 10 mM HEPES pH 7.6, 0.33 mM MgSO4, 0.1 mg/ml gentamicin sulfate). Subsequently, stage 5 oocytes were isolated and injected with 50 nl (5-20 ng) each of the appropriate subunit cRNAs. Recordings were made 2 to 15 days after injection.
# Rat neuronal nAChR clones and mouse muscle nAChR cDNA clones were used. The wild-type clones were obtained from Dr. Jim Boulter (UCLA). The rat α6/3 (Dowell et al. J Neurosci, 2003, 23:8445-8452) clone was obtained from Michael McIntosh (University of Utah) and expressed in Xenopus oocytes in combinations with rat β2 and β3. […] The TM2 domain is understood to line the pore of the channel, with alpha helix structure. The 7′ position may actually be directed away from the actual pore lining, but this residue is highly conserved in all of the nAChR. It is valine in all of them except α9 (isoleucine) and β1, where it is alanine. The TM2 mutation in the α6/3 chimera was corrected by using QuickChange (Stratagene) according to their protocols. The corrected α6/3 chimera sequence was confirmed by restriction diagnostics and by automated fluorescent sequencing (University of Florida core facility). The corrected clone was expressed as above in Xenopus oocytes with β2 and β3 and compared to the wild-type α3 co-expressed with β2 and β3.
# After linearization and purification of cloned cDNAs, RNA transcripts were prepared in vitro using the appropriate mMessage mMachine kit from Ambion Inc. (Austin, Tex.).
# Electrophysiology. The majority of experiments were conducted using OpusXpress 6000A (Axon Instruments, Union City Calif.). OpusXpress is an integrated system that provides automated impalement and voltage clamp of up to eight oocytes in parallel. Cells were automatically perfused with bath solution, and agonist solutions were delivered from a 96-well plate. Both the voltage and current electrodes were filled with 3 M KCl. The agonist solutions were applied via disposable tips, which eliminated any possibility of cross-contamination. Drug applications alternated between ACh controls and experimental applications. Flow rates were set at 2 ml/min for experiments with α7 receptors and 4 ml/min for other subtypes. Cells were voltage-clamped at a holding potential of −60 mV. Data were collected at 50 Hz and filtered at 20 Hz. Agonist applications were 12 seconds in duration followed by 181-second washout periods for α7 receptors and 8 seconds with 241-second wash periods for other subtypes. For some experiments, particularly under conditions where residual inhibition precluded making repeated measurements from single cells (see below), manual oocyte recordings were made as previously described (Papke and Papke Br J of Pharmacol, 2002, 137:49-61). In brief, Warner Instruments (Hamden, Conn.) OC-725C oocyte amplifiers were used, and data were acquired with a minidigi or digidata 1200A with pClamp9 software (Axon Instruments). Sampling rates were between 10 and 20 Hz and the data were filtered at 6 Hz. […]
# T1 sequence (P43143 31-493): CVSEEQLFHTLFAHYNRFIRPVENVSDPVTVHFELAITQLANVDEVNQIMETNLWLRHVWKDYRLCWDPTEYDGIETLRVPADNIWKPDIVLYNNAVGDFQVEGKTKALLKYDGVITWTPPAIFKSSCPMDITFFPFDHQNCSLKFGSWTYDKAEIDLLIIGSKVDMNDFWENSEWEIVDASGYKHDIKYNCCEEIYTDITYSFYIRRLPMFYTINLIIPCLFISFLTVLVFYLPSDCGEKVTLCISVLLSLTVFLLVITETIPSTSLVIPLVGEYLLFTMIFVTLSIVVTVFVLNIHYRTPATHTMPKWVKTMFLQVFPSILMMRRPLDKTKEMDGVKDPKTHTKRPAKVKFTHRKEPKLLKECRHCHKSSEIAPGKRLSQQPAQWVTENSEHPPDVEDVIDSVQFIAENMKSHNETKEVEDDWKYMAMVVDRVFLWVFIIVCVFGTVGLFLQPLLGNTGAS
# T1 sequence (P12392 21-495): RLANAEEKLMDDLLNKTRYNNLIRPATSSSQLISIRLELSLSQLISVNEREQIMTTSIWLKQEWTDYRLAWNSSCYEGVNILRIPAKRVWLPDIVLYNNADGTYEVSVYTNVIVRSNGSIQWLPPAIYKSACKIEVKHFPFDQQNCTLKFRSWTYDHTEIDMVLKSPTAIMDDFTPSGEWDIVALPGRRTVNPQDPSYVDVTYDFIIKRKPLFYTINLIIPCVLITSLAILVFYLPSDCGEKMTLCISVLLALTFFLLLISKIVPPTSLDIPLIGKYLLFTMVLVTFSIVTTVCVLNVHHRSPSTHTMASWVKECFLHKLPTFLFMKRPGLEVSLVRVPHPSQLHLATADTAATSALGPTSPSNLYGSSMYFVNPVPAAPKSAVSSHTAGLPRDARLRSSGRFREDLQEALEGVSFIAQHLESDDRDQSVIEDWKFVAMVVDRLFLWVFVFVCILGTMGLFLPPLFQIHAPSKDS
# T1 sequence (P12391 31-464): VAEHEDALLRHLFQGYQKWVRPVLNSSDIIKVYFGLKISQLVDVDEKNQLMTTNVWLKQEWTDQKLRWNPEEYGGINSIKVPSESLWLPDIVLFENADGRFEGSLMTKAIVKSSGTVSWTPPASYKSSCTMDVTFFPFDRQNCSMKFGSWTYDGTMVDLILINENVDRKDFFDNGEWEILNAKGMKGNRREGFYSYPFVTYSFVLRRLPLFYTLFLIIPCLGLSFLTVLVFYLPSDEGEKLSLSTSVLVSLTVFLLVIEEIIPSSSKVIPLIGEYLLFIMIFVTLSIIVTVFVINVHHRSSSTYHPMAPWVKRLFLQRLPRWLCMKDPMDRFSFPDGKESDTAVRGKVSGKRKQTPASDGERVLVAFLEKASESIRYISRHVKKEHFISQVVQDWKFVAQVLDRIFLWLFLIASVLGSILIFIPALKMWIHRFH
structure (smiles),measurement,setting,value
"CCCCCCC(=O)OC1CC(C)(C)NC(C)(C)C1 [TMPH, 2,2,6,6-tetramethylpiperidin-4-yl heptanoate]","time at which nicotine's effect recovered fully to pre-treatment value, hot-plate",mice; pretreatment with TMPH 5 mg/kg,60 min
same,"antinociception by TMPH itself, hot-plate","mice; s.c. injection, at the indicated doses and times",did not cause antinociception
same,effect of TMPH-nicotine combination on response rates,"rats; compared to vehicle, any dose combination tested, p>0.05",did not alter response rates
same,nicotine-lever responding by TMPH alone,rats; doses at which antagonism was observed (data not shown),did not produce nicotine-lever responding
same,IC50,"Rat α6β4β3; decrease in net charge, 100 μM ACh co-applied with TMPH, read-out: IC50 (area)",18.3 ± 4.9 µM
same,IC50,"Rat α6β4β3; decrease in peak current amplitude, 100 μM ACh co-applied with TMPH, read-out: IC50 (peak)",11 ± 4.4 µM
same,IC50,"Rat α6β4β3; inhibition still present after 5-minute wash, read-out: IC50 (recovery)",1700 ± 420 µM
same,IC50 net charge/IC50 peak,Rat α6β4β3; ratio,1.7
same,IC50 recovery/IC50 net charge,Rat α6β4β3; ratio,93
